The supplement of paper PMC13380429

Tests used:
Settings in all cases: 72 h
U2OS [1] = test: relative viability EC50 (midpoint between 100% and the lowest measured viability); higher = less toxic
Caco-2 [2] = test: as above
Vero E6 [3] = test: as above
HepG2 [4] = test: as above
U2OS [5] = test: cell viability relative to DMSO; higher = less toxic
Caco-2 [6] = test: as above
Vero E6 [7] = test: as above
HepG2 [8] = test: as above
U2OS [9] = test: drug sensitivity score (DSS) for viability; higher = more toxic; extreme values may be limits of the assay
Caco-2 [10] = test: as above
Vero E6 [11] = test: as above
HepG2 [12] = test: as above
Calu-3 [13] = test: as above
Calu-3 [14] = test: cell viability relative to DMSO; higher = less toxic

Row | Compound | relative viability EC50 (U2OS [1]) [µM] | relative viability EC50 (Caco-2 [2]) [µM] | relative viability EC50 (Vero E6 [3]) [µM] | relative viability EC50 (HepG2 [4]) [µM] | cell viability (U2OS [5]; 1 nM) [%] | cell viability (U2OS [5]; 10 nM) [%] | cell viability (U2OS [5]; 100 nM) [%] | cell viability (U2OS [5]; 1000 nM) [%] | cell viability (U2OS [5]; 10000 nM) [%] | cell viability (Caco-2 [6]; 1 nM) [%] | cell viability (Caco-2 [6]; 10 nM) [%] | cell viability (Caco-2 [6]; 100 nM) [%] | cell viability (Caco-2 [6]; 1000 nM) [%] | cell viability (Caco-2 [6]; 10000 nM) [%] | cell viability (Vero E6 [7]; 1 nM) [%] | cell viability (Vero E6 [7]; 10 nM) [%] | cell viability (Vero E6 [7]; 100 nM) [%] | cell viability (Vero E6 [7]; 1000 nM) [%] | cell viability (Vero E6 [7]; 10000 nM) [%] | cell viability (HepG2 [8]; 1 nM) [%] | cell viability (HepG2 [8]; 10 nM) [%] | cell viability (HepG2 [8]; 100 nM) [%] | cell viability (HepG2 [8]; 1000 nM) [%] | cell viability (HepG2 [8]; 10000 nM) [%] | drug sensitivity score (U2OS [9]) | drug sensitivity score (Caco-2 [10]) | drug sensitivity score (Vero E6 [11]) | drug sensitivity score (HepG2 [12]) | drug sensitivity score (Calu-3 [13]) | cell viability (Calu-3 [14]; 1 nM) [%] | cell viability (Calu-3 [14]; 10 nM) [%] | cell viability (Calu-3 [14]; 100 nM) [%] | cell viability (Calu-3 [14]; 1000 nM) [%] | cell viability (Calu-3 [14]; 10000 nM) [%]
1 | COC(=O)c1cc(OC)c2c(c1-c1c(CO)cc(OC)c3c1OCO3)OCO2 [bicyclol] | > 10 | > 10 | > 10 | > 10 | 101 | 97.6 | 97.8 | 98.2 | 94.8 | 89.9 | 98.7 | 104 | 101 | 101 | 108 | 105 | 104 | 99.9 | 100 | 90.5 | 97.8 | 92.1 | 108 | 100 | 0 | 0 | 0 | 0 |  |  |  |  |  | 
2 | Nc1nc(=O)c(Br)c(-c2ccccc2)[nH]1 [bropirimine] | > 10 | > 10 | > 10 | > 10 | 92.8 | 95.1 | 102 | 95.7 | 104 | 96.6 | 91.4 | 102 | 87.8 | 112 | 94.8 | 98.3 | 92.4 | 98.7 | 102 | 102 | 118 | 92.4 | 103 | 114 | 0 | 0 | 0 | 0 |  |  |  |  |  | 
3 | CCN(CC)CCOC(=O)C1(c2ccccc2)CCCC1 [caramiphen] |  |  |  |  |  |  |  |  |  |  |  |  |  |  |  |  |  |  |  |  |  |  |  |  | 0 |  | 0 | 0 | 0 |  |  |  |  | 
4 | O=c1c(-c2ccc(O)cc2)coc2cc(O)ccc12 [daidzein] |  |  |  |  |  |  |  |  |  |  |  |  |  |  |  |  |  |  |  |  |  |  |  |  | 0 |  | 0 | 0 | 0 |  |  |  |  | 
5 | O=c1oc2ccccc2c(O)c1Cc1c(O)c2ccccc2oc1=O [dicoumarol] |  |  |  |  |  |  |  |  |  |  |  |  |  |  |  |  |  |  |  |  |  |  |  |  | 0 |  | 0 |  | 0 |  |  |  |  | 
6 | CN[C@@H](C)[C@H](O)c1ccccc1 [ephedrine] |  |  |  |  |  |  |  |  |  |  |  |  |  |  |  |  |  |  |  |  |  |  |  |  | 0 |  | 0 | 0 |  |  |  |  |  | 
7 | COC(=O)[C@@H]1CC2=CC(=O)CC[C@]2(C)[C@@]23O[C@@H]2C[C@@]2(C)[C@@H](CC[C@@]24CCC(=O)O4)[C@H]13 [eplerenone] |  | > 10 | > 10 |  |  |  |  |  |  | 98.4 | 101 | 85.8 | 92.8 | 98.4 | 99.7 | 100 | 99.1 | 101 | 95 |  |  |  |  |  |  | 0 | 0 |  |  |  |  |  |  | 
8 | NP(N)(=O)NC(=O)c1ccc(F)cc1 [flurofamide] | > 10 | > 10 | > 10 | > 10 | 100 | 102 | 97.3 | 99.4 | 96 | 95.9 | 96.4 | 90.9 | 94.7 | 91 | 103 | 102 | 103 | 97.6 | 102 | 101 | 98.6 | 90.1 | 95 | 103 | 0 | 0 | 0 | 0 |  |  |  |  |  | 
9 | Oc1ccc(CC2NCCc3cc(O)c(O)cc32)cc1 (configuration not stated) [higenamine] | 2.95 |  | 3.22 | 1.56 | 98.1 | 103 | 97.5 | 98.1 | 36.6 | 97.6 | 102 | 94.9 | 86.2 | 59.4 | 104 | 99.2 | 102 | 100 | 48.6 | 105 | 97.1 | 99.3 | 83.3 | 32.6 | 3.7 | 3.5 | 2.7 | 6.3 |  |  |  |  |  | 
10 | O=S(=O)(c1cccc2c(O)nccc12)N1CCCNCC1 [hydroxyfasudil] |  |  |  |  | 95.4 | 101 | 96.4 |  | 102 | 98.7 | 99.3 | 94 | 107 | 109 | 95.7 | 95.8 | 96.4 | 90.3 | 107 | 96.6 | 97.7 |  | 97.7 | 98.3 | 0 | 0 | 0 | 0 | 0 | 91.6 | 94.1 | 110 | 119 | 136
11 | O=[N+]([O-])O[C@@H]1CO[C@H]2[C@@H]1OC[C@@H]2O [isosorbide-mononitrate] | > 10 | > 10 | > 10 | > 10 | 96.5 | 96.8 | 93.5 | 96.7 | 97.2 | 100 | 111 | 94.4 | 117 | 114 | 103 | 103 | 101 | 104 | 94.4 | 101 | 108 | 91.2 | 98.7 | 93.3 | 0 | 0 | 0 | 0 |  |  |  |  |  | 
12 | CC(COc1ccccc1)NC(C)C(O)c1ccc(O)cc1 (configuration not stated) [isoxsuprine] |  |  |  |  |  |  |  |  |  |  |  |  |  |  |  |  |  |  |  |  |  |  |  |  |  |  | 0 | 0 | 0 |  |  |  |  | 
13 | O=c1c(O)c(-c2ccc(O)cc2)oc2cc(O)cc(O)c12 [kaempferol] | > 10 | > 10 | > 10 | > 10 | 98.2 | 99.6 | 97 | 96.7 | 101 | 98.5 | 99.9 | 97.5 | 95.9 | 82.4 | 101 | 104 | 98.5 | 102 | 103 | 93.8 | 86.9 | 106 | 97.5 | 94.1 | 0 | 0.9 | 0 | 0 |  |  |  |  |  | 
14 | COC(=O)Nc1nc2cc(C(=O)c3ccccc3)ccc2[nH]1 [mebendazole] | 0.774 |  | 1.59 | 0.387 | 95.5 | 102 | 95.5 | 66 | 41.2 | 91.6 | 104 | 88.4 | 67.2 | 55.6 | 111 | 97.6 | 102 | 84.7 | 35.6 | 97.5 | 109 | 102 | 44.3 | 40.9 | 7.3 | 7 | 5.9 | 10.1 | 3.4 | 81.1 | 107 | 95 | 84.6 | 61.3
15 | COc1cc(NC(=O)Nc2cccc(CNC(=O)O[C@H]3CCOC3)c2)ccc1-c1cnco1 [merimepodib] |  |  |  |  |  |  |  |  |  |  |  |  |  |  |  |  |  |  |  |  |  |  |  |  | 3.7 |  | 0 | 4.3 | 3.6 |  |  |  |  | 
16 | COC(=O)Nc1nc2cc(SC(C)C)ccc2[nH]1 [methiazole] | 1.62 | 1.52 | 1.61 | 1.53 | 101 | 97.6 | 99.9 | 86.4 | 41.1 | 104 | 100 | 99.1 | 86.8 | 49 | 91.9 | 103 | 92.6 | 86.6 | 47.5 | 95 | 105 | 95.7 | 83.4 | 35 | 5.4 | 4.8 | 4.7 | 6.1 | 4 | 95.5 | 97 | 103 | 81.6 | 64.6
17 | CN(C)C(=O)Oc1cccc([N+](C)(C)C)c1 [neostigmine] | > 10 | > 10 | > 10 |  | 97.8 | 95.7 | 102 | 97.9 | 100 | 97.2 | 91.9 | 100 | 93.7 | 99.2 | 91.1 | 93.1 | 90.6 | 94.8 | 112 |  |  |  |  |  | 0 | 0 | 0 |  |  |  |  |  |  | 
18 | CCOc1ccc(C(=O)OCCN(CC)CC)cc1 [parethoxycaine] | > 10 | > 10 | > 10 | > 10 | 101 | 92.8 | 103 | 98.1 | 98.8 | 97.1 | 85.1 | 95.6 | 93.7 | 104 | 94.6 | 95.6 | 92.3 | 97.5 | 111 | 98.6 | 116 | 106 | 108 | 102 | 0 | 0 | 0 | 0 |  |  |  |  |  | 
19 | C=C(C)[C@@H]1CC=C(CO)CC1 [perillyl-alcohol] | > 10 | > 10 | > 10 | > 10 | 105 | 98.2 | 98.8 | 95.6 | 98.5 | 99 | 99.6 | 102 | 102 | 98.6 | 98 | 102 | 98 | 95.5 | 96 | 101 | 93.2 | 108 | 94.5 | 92.9 | 0 | 0 | 0 | 0 |  |  |  |  |  | 
20 | Nc1ccc(C(=O)Oc2ccccc2)c(O)c1 [phenyl-aminosalicylate] |  |  |  |  |  |  |  |  |  |  |  |  |  |  |  |  |  |  |  |  |  |  |  |  | 0 |  | 0 | 1 | 0 |  |  |  |  | 
21 | CCCc1cc(=O)[nH]c(=S)[nH]1 [propylthiouracil] |  |  |  |  |  |  |  |  |  |  |  |  |  |  |  |  |  |  |  |  |  |  |  |  | 0 |  | 0 |  | 0 |  |  |  |  | 
22 | CN(N=O)C(=O)N[C@@H](C=O)[C@@H](O)[C@H](O)[C@H](O)CO [streptozotocin] | > 10 | > 10 | > 10 | > 10 | 106 | 97.5 | 100 | 102 | 103 | 106 | 82.3 | 79.9 | 85.2 | 96.2 | 98.5 | 98.1 | 98.4 | 96.7 | 92.6 | 98.3 | 90.7 | 104 | 101 | 101 | 0 | 1 | 0 | 0 |  |  |  |  |  | 
23 | COC[C@H]1OC(=O)c2coc3c2[C@@]1(C)C1=C(C3=O)[C@@H]2CCC(=O)[C@@]2(C)C[C@H]1OC(C)=O [wortmannin] |  | 0.409 | > 10 | > 10 | 95.1 | 99.3 | 94.1 | 91.1 | 65.1 | 102 | 99.3 | 88.2 | 58.3 | 40.8 | 106 | 103 | 97.3 | 88.9 | 76.8 | 98.4 | 97.4 | 98.2 | 98.2 | 86.7 | 2.8 | 9.1 | 1.7 | 0.3 | 7.9 | 93.8 | 90.6 | 82.7 | 69.5 | 51.4
